According to patent US20200384013A1, “COMPOSITION FOR IMPROVEMENT OF SYMPTOMS OF SPINAL CORD INJURY” (MiZ Company Limited, priority 2019, published 2020):

How the values were obtained:
[1] = system: symptoms of cervical spine/cervical cord injury
Description: They restored consciousness about a week after the accident.
Immediately before inhalation of hydrogen gas 6 years after the accident, they went to work in the afternoon 4 or 5 days a week, and stayed at home throughout a day when they felt ill. Further, they occasionally saw a doctor of psychiatry.
About 6 years after the accident, the patient underwent inhalation of hydrogen (hydrogen inhalation equipment: MHG-2000a Type, hydrogen concentration: 6 to 7.5%, hydrogen gas production rate: 140 mL/min, MiZ Company Limited (Kanagawa, Japan) over a period from Oct. 4, 2018 to May 12, 2019. Hydrogen was aspirated twice a day, once in the morning and once in the afternoon, for a total of 2 to 7.5 hours (an average of 3.3 hours a day), and as symptoms, pain, disordered sleep, decreased appetite, physical fatigue, mental fatigue, nervous fatigue, burning sensation on the back and foot spasticity were evaluated on Face Pain Scale (FPS; scale: 0 to 5) for about 7 months.
The FAS scales in FIGS. 1 to 5 indicate how the state changed after inhalation as compared to the state before inhalation. […] In FIGS. 1 to 5, the number of scores (e.g. 0 to 3) was counted for each of the periods, and the ratio (%) of the scores in each item was calculated. In the diagrams, the numbers shown outside the table represent the total numbers of respective scores.
Further, on May 13, 2019, the patient started inhalation of hydrogen using hydrogen gas inhalation equipment for professional use (hydrogen concentration: 6 to 7.5%, hydrogen gas production rate: 1,120 mL/min, MiZ Company Limited) instead of the hydrogen inhalation equipment MHG-2000a Type.
FIGS. 1 to 5 show the results of counting over a period from Oct. 4, 2018 to Feb. 14, 2019.
The patient recorded the FAS scores as well as their feeling before and after inhalation on paper record forms as will be described below.

[2] = normal temperature and normal pressure; also printed as 1.6 mg/L; cited from earlier work
[3] = system: injured nerve cells of the spinal cord / spinal cord-injured animal model; settings: high-concentration hydrogen of, for example, 50% or more; X. Chen 2018, C. Chen 2010; cited from earlier work
[4] = compared with H2; stated as known; cited from earlier work

Row | SMILES | FAS “4” and FAS “5” scores ([1]; Oct. 4, 2018 to Feb. 14, 2019, all items, hydrogen 6 to 7.5%, 140 mL/min) | improvement in pain, sleep, appetite, physical fatigue, mental fatigue and nervous fatigue (Face Pain Scale scores) ([1]; Oct. 4 to Oct. 31, 2018, inhalation, hydrogen 6 to 7.5%, 140 mL/min, average 3.3 hours a day, FAS 0 and 1 scores recorded) | improvement in sensation on the back and improvement in foot spasticity (Face Pain Scale scores) ([1]; Oct. 4 to Oct. 31, 2018, inhalation, hydrogen 6 to 7.5%, 140 mL/min, FAS 2 and 3 scores, occasionally 1) | Face Pain Scale scores, all items, before against after inhalation ([1]; from May 13, 2019, equipment for professional use, hydrogen 6 to 7.5%, 1,120 mL/min) | ratio of FAS “1” scores ([1]; in and after November 2018, against inhalation time, hydrogen 6 to 7.5%, 140 mL/min) | FAS score recorded in any of the items ([1]; on and after Dec. 1, 2018, continuous inhalation, hydrogen 6 to 7.5%, 140 mL/min, scale 0 to 5) | body temperature and sweating reported by the patient ([1]; record May 13, 2019, equipment 1,120 mL/min, hydrogen 6 to 7.5%) | patient's recorded feeling (spasticity, peripheral nerve, metabolism, flow of blood, induction of sleep) ([1]; record May 13, 2019, equipment 1,120 mL/min, hydrogen 6 to 7.5%, compared with before) | concentration of hydrogen dissolved in water [2] | nerve cells of the spinal cord [3] | oxidative stress [3] | superoxide eliminating action [4]
1 | [HH] [hydrogen gas, molecular hydrogen] | not recorded at all | good improvement tendency | the improvement tendency was unknown or became worse | improvement occurred in all the items | tended to increase as the inhalation time increased | 3 | the body temperature rises, and thus sweating cannot be stopped | a more potent effect is exhibited | about 1.6 ppm | the nerve cells of the spinal cord were protected | oxidative stress was suppressed | 
2 | [2H][2H] [D2, deuterium] |  |  |  |  |  |  |  |  |  |  |  | higher than that of H2
